The results in this text go back to US20030188679A1, “Powdered mannitol and mannitol-containing compositions” (priority 2000, published 2003).

Where only a bound is given, the exact number is not on record here.

The data set in a line: Particle size result of micronised salbutamol sulphate. The data set is classed as physicochemical.

Turning to Salbutamol Sulphate, the “Particle size result: MMD (Mass Mean Diameter)” value is listed as “=2.53 μm”, the “Particle size result: fraction of particles >1 μm” value was found to be 90.17% and the “Particle size result: size below which 90% of particles lie” value is below 5.48 μm.
